Assay results published in patent publication US20230111914A1, “SYNTHETIC TRITERPENOIDS WITH NITROGEN-BASED SUBSTITUENTS AT C-17 AND METHODS OF USE THEREOF” (REATA PHARMACEUTICALS, INC., priority 2019, published 2023).
Several values for one entry are separate records, joined by “and”; a condition that tells them apart may be missing. Equal entries are not always repeated. Marks after values point to notes of the source that are not given here.

Columns and labels:
[1] = test system: IFNγ-induced NO production in RAW 264.7 cells; test: Nitric oxide suppression assay (IFNγ-induced NO production, Griess nitrite readout); format: cell-based, mouse; details: for IC50: Mus musculus, RAW264.7, RAW 264.7 cells, 2 h pretreatment, 20 ng/mL interferon gamma 24 h, average of trials per footnote, read-out: NO IC50
[2] = target: T1, CYP3A4 (Homo sapiens, UniProt P08684); test: CYP3A4 (midazolam) inhibition in human liver microsomes; format: in vitro ADME; details: probe midazolam; human liver microsomes 0.1 mg/mL, midazolam substrate, 1 μM test compound, 37° C. 10 min
T1 construct: containing 0.1 mg/mL human liver microsomes; from tissue; host or cells: human liver microsomes
Protocol: Methods. Several compounds were evaluated for CYP3A4 (midazolam) inhibition in human liver microsomes at 1 μM. CYP3A4 inhibition was tested using an in vitro assay as generally described in Dierks et al. (Drug Metabolism Deposition, 29:23-29, 2001, which is incorporated by reference herein). Each sample, containing 0.1 mg/mL human liver microsomes, […] as substrate, and 1 μM of test compound, was incubated at 37° C. for 10 min. Following incubation, the metabolite 1-hydroxymidazolam was measured using HPLC-MS/MS. Peak areas corresponding to the metabolite of the substrate were recorded. The percent of control activity was then calculated by comparing the peak area obtained in the presence of the test compound to that obtained in the absence of the test compound. Subsequently, the percent inhibition was calculated by subtracting the percent control activity from 100 for each compound.

[3] = test system: AREc32 reporter cell line (luciferase reporter under eight copies of the rat GSTA2 ARE sequence); test: AREc32 luciferase reporter activation; format: cell-based, human; details: for EC (2-fold): Homo sapiens, Arec32, concentration that increases the luminescence signal 2-fold above vehicle, 19 h treatment, read-out: AREc32 EC2X (Mean ± SD); for AREc32 Relative to CC in Same Experiment (Mean ± SD): average of ratios from three replicate experiments

T1 sequence (P08684 whole entry): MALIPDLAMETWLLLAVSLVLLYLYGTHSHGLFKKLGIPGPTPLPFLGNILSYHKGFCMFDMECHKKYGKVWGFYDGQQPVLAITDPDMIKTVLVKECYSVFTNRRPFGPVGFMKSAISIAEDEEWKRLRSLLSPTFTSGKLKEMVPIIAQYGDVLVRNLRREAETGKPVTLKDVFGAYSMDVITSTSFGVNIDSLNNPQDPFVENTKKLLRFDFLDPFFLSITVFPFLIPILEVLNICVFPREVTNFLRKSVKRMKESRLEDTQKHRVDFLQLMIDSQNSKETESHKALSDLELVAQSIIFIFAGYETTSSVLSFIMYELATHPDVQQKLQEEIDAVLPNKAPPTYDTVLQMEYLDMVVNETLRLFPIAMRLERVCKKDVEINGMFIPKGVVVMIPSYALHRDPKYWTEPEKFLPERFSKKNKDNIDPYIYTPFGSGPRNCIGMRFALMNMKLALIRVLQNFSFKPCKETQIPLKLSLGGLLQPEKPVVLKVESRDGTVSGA

For `CC1(C)CC[C@]2(n3cc(CF)nn3)CC[C@]3(C)[C@H](C(=O)C=C4[C@@]5(C)C=C(C#N)C(=O)C(C)(C)[C@@H]5CC[C@]43C)[C@@H]2C1` [Compound T43], the “NO IC50 Rel. to RTA 402” value [1] was 0.66 fold and 0.66 ± 0.09^d fold, the “times more active (NO IC50) than CC4 relative to RTA 402” value [1] was “roughly 3.7 times” and the IC50 [1] was 2.68 nM. For the same compound, the inhibition at 10 min, 1 µM [2] was 17%, the “AREc32 EC2X Relative to RTA 402 (Mean ± SD)” value [3] was 0.7 ± 0.15^f fold and the EC (2-fold) [3] was 0.0085 ± 0.00055 µM. For the same compound, the “AREc32 Relative to CC in Same Experiment (Mean ± SD)” value (“AREc32 Relative to CC … (Mean ± SD)” below) ([3]; comparison compound CC4) was 0.299 ± 0.015.

In the case of `CC1(C)CC[C@]2(n3cc(C(F)F)nn3)CC[C@]3(C)[C@H](C(=O)C=C4[C@@]5(C)C=C(C#N)C(=O)C(C)(C)[C@@H]5CC[C@]43C)[C@@H]2C1` [Compound T44], the “NO IC50 Rel. to RTA 402” value [1] is reported as 1.07 ± 0.11^d fold, the IC50 [1] is reported as 4.39 ± 0.73 nM and the inhibition at 10 min, 1 µM [2] is reported as 29.1%. The “AREc32 EC2X Relative to RTA 402 (Mean ± SD)” value [3] was 0.9 ± 0.15^f fold, the EC (2-fold) [3] was 0.0106 ± 0.00083 µM and the “AREc32 Relative to CC … (Mean ± SD)” value ([3]; comparison compound CC4) was 0.387 ± 0.037.

With `Cc1cn(C[C@]23CCC(C)(C)C[C@H]2[C@H]2C(=O)C=C4[C@@]5(C)C=C(C#N)C(=O)C(C)(C)[C@@H]5CC[C@@]4(C)[C@]2(C)CC3)nn1` [Compound T48] the “NO IC50 Rel. to RTA 402” value [1] was 1.19 fold and 1.19 ± 0.18^e fold, the “times more active (NO IC50) than CC2 relative to RTA 402” value [1] was “roughly 1.3 times” and the IC50 [1] was 2.5 nM. For the same compound, the inhibition at 10 min, 1 µM [2] was 29.8%, the “AREc32 EC2X Relative to RTA 402 (Mean ± SD)” value [3] was 1.3 ± 0.21^g fold and the EC (2-fold) [3] was 0.0129 ± 0.00143 µM. The “AREc32 Relative to CC … (Mean ± SD)” value ([3]; comparison compound CC2) was 0.802 ± 0.050.
